Patent US11911349B2, “Rapidly improving vascular conditions by administering vitamin K” (NATTOPHARMA AS, priority 2018, dated 2024)

Columns and labels:
Assay type in all cases: in vivo
[1] = tested on: ApoE/LDLR−/− mice; assay: Example 3: histological assessment of area and composition of atherosclerotic plaque in BCA, older mice; conditions: eight weeks; for decrease in vessel wall area (VWA): 24-week-old mice
Source text: For the determination of atherosclerotic plaque area and composition isolated brachiocephalic artery (BCA) was dissected, fixed in 4% buffered formalin, and embedded in paraffin. 5 μm-thick serial sections of BCA were collected from the proximal to distal part of the artery. Staining with Unna's orcein combined with Martius, Scarlet and Blue trichrome (OMSB) was applied on every tenth section (50 μm interval between each section) for quantitative analysis of atherosclerotic plaques. The areas of particular components of atherosclerotic plaque as well as artery lumen and wall were determined after Columbus-based software processing (FIG. 9) using specially-designed algorithm as described in Gajda M, Jasztal A, Banasik T, Jasek-Gajda E, Chlopicki S. Combined orcein and martius scarlet blue (OMSB) staining for qualitative and quantitative analyses of atherosclerotic plaques in brachiocephalic arteries in apoE/LDLR−/− mice. Histochem Cell Biol 2017. doi:10.1007/s00418-017-1538-8. The parameters analyzed include vessel wall area (VWA), internal vessel area (IVA=plaque area+lumen area), plaque area (expressed as percent of internal wall area: plaque/IWA), and lumen area (expressed as percent of internal wall area: lumen/IWA).

[2] = tested on: ApoE/LDLR−/− mice; assay: Example 2: histological assessment of plaque size, composition and vessel wall area in BCA; conditions: two months
Source text: For the determination of atherosclerotic plaque area and composition BCA was dissected, fixed in 4% buffered formalin and embedded in paraffin. 5 μm-thick serial sections of BCA were collected from proximal, middle and distal parts of artery. Originally developed staining with Unna's orcein combined with Martius, Scarlet and Blue trichrome (OMSB), was applied on every tenth section (50 μm interval between each section) for visualization of collagen, elastin, fibrin, red blood cells and vascular smooth muscle cells within atherosclerotic plaque. The areas of particular components of atherosclerotic plaque as well as artery lumen and wall were determined after Columbus-based software processing (FIG. 1B) using a previously developed algorithm [Gajda M, Jasztal A, Banasik T, Jasek-Gajda E, Chlopicki S. Combined orcein and martius scarlet blue (OMSB) staining for qualitative and quantitative analyses of atherosclerotic plaques in brachiocephalic arteries in apoE/LDLR−/− mice. Histochem Cell Biol 2017. doi:10.1007/s00418-017-1538-8.].

[3] = tested on: ApoE/LDLR−/− mice; assay: Example 2: nitrite and nitrate concentration in plasma (HPLC, ENO-20); conditions: two months
Protocol: Blood samples were collected from heart into test tubes containing additional anticoagulant and centrifuged at 1000 g for 10 min at 4° C. The samples were used for HPLC measurement of nitrate (NO3−) and nitrite (NO2−) concentrations in plasma by an ENO-20 NOx Analyzer.

[4] = tested on: ApoE/LDLR−/− mice; assay: Example 3: MRI assessment of Ach response in BCA and LCA, older mice with advanced atherosclerosis; conditions: low dose 0.03 mg/kg b.w/day, eight weeks, 24-week-old mice; listed as vitamin K2, 0.03 mg/kg/day
Protocol: In a second part of the study, the effects of a low dose (0.03 mg/kg b.w./day) as well as a high doses (10 mg/kg b.w./day) of vitamin K2 (MK-7) on endothelial function in ApoE/LDLR−/−mice with pre-established atherosclerosis were assessed.
Magnetic resonance imaging (MRI) experiments were performed using a 9.4T scanner (BioSpec 94/20 USR, Bruker, Germany) located in the Department of Magnetic Resonance Imaging, Institute of Nuclear Physics, Polish Academy of Sciences in Krakow. During the experiment, mice were anaesthetized using isoflurane (Aerrane, Baxter Sp. z o. o., Poland, 1.7 vol %) in an oxygen and air (1:2) mixture and imaged in the supine position. Activity of the heart, respiration, and body temperature (maintained at 37° C. using circulating warm water) were monitored using a Monitoring and Gating System (SA Inc., Stony Brook, N.Y., USA). […]
Vasomotor response was examined by comparing two time-resolved 3D images of the vessels prior to and 25 minutes after intraperitoneal Ach administration (Sigma-Aldrich, Poznan Poland: 50 μl, 16.6 mg/kg), as well as prior to and 5 minutes after vessel occlusion. […] End-diastolic volumes of vessels were analyzed using ImageJ software 1.46r (NIH Bethesda, Md., USA) and scripts written in Matlab (MathWorks, Natick, Mass., USA). […]

With `CC(C)=CCC/C(C)=C/CC/C(C)=C/CC/C(C)=C/CC/C(C)=C/CC/C(C)=C/CC/C(C)=C/CC1=C(C)C(=O)c2ccccc2C1=O` [MK-7, menaquinone-7] the “lumen area expressed as percent of IWA” value ([1]; high dose 10 mg/kg b.w./day) was “did not change”, the “plaque area expressed as percent of IWA” value ([1]; high dose 10 mg/kg b.w./day) was “did not change” and the “plaque size compared with non-treated mice” value ([1]; high dose 10 mg/kg b.w./day) was “not different”. For the same compound, the “decrease in vessel wall area (VWA)” value ([1]; high dose 10 mg/kg b.w./day) was “about 5%”, the “lumen area expressed as percent of IWA” value ([1]; low dose 0.03 mg/kg b.w./day) was “did not change” and the “plaque area expressed as percent of IWA” value ([1]; low dose 0.03 mg/kg b.w./day) was “did not change”. For the same compound, the “plaque size compared with non-treated mice” value ([1]; low dose 0.03 mg/kg b.w./day) was “not different”, the “decrease in vessel wall area (VWA)” value ([1]; low dose 0.03 mg/kg b.w./day) was “about 5%” and the “internal wall area (IWA)” value ([1]; lower dose, data not shown, not visible for entire vessel) was “decreased only in the middle part of the vessel”. The “content of collagen in plaque, treated vs untreated” value ([2]; high dose 10 mg/kg b.w./day) was “lack of differences”, the “decrease in lipid core expressed as percent of plaque” value ([2]; high dose 10 mg/kg b.w./day) was “about 17%” and the “decrease in vessel wall area (VWA) of BCA” value ([2]; high dose 10 mg/kg b.w./day) was “about 5%”. For the same compound, the “effect on plaque size” value ([2]; high dose 10 mg/kg b.w./day) was “did not result in a beneficial effect”, the “lumen area expressed as percent of IWA” value ([2]; high dose 10 mg/kg b.w./day) was “did not change” and the “plaque area expressed as percent of IWA” value ([2]; high dose 10 mg/kg b.w./day) was “did not change”. The “content of collagen in plaque, treated vs untreated” value ([2]; low dose 0.03 mg/kg b.w./day) was “lack of differences”, the “decrease in lipid core expressed as percent of plaque” value ([2]; low dose 0.03 mg/kg b.w./day) was “about 17%” and the “decrease in vessel wall area (VWA) of BCA” value ([2]; low dose 0.03 mg/kg b.w./day) was “about 5%”. The “effect on plaque size” value ([2]; low dose 0.03 mg/kg b.w./day) was “did not result in a beneficial effect”, the “lumen area expressed as percent of IWA” value ([2]; low dose 0.03 mg/kg b.w./day) was “did not change” and the “plaque area expressed as percent of IWA” value ([2]; low dose 0.03 mg/kg b.w./day) was “did not change”. The “internal wall area (IWA)” value ([2]; lower dose 0.03 mg/kg b.w./day, not visible for entire vessel) was “decreased only in the middle part of the vessel”, the “concentration of NO3− in plasma” value ([3]; 0.03 mg/kg b.w./day) was “did not change significantly” and the “concentration of NO3− in plasma” value ([3]; 10 mg/kg b.w./day) was “did not change significantly”. For the same compound, the “volume change of LCA after Ach injection” value [4] was ~−3%.
